Laboratory results from US20060024414A1, “Methods for preserving food products” (Kraft Foods Holdings, Inc., priority 2004, published 2006).

Tests used:
Format in all cases: cell-based
[1] = tested on: Listeria monocytogenes OSY-8578; test: Pressure inactivation in phosphate buffer, plate count; settings: TBHQ about 100 ppm
Protocol: (§1) Three strains of Listeria monocytogenes identified in Example 1 were grown in tryptose broth for 18 hours at 37° C. Cultures were centrifuged at 10,000 rpm for 15 minutes at 4° C. Cell pellets were resuspended in phosphate buffer (pH 7.0) and the cell population of each strain was adjusted to 10^9 CFU/ml. Tert-butylhydroquinone was added at about 100 ppm (10% vol/vol TBHQ/culture). Preparation of sample bags and the high pressure treatment procedures were same as indicated in Example 1. Pressures tested were 300, 500, and 700 MPa. Control and high pressure-treated treated samples were serially diluted in 0.1% peptone water and spread-plated on tryptose agar. The plates were incubated at 37° C. for 48-72 hours and the colonies were counted.
(§2) The detection level for enumeration was 10 CFU/ml. The initial population of OSY-328 averaged about 8.9 logs; therefore, more than 7.9 log reduction indicates below the detection level.

[2] = tested on: Listeria monocytogenes OSY-328; test: as above; settings: TBHQ about 100 ppm
Protocol: as §1, §2

[3] = tested on: Listeria monocytogenes Scott A; test: as above; settings: TBHQ about 100 ppm
Protocol: as §1, §2

[4] = tested on: Listeria monocytogenes Scott A; test: Inoculated bagged Vienna sausage challenge, warm enrichment/plating for survivors; settings: nisin 0 IU/g, about 5 min; for Percentage of Bags Testing Positive For Listeria in Batch of 5 (±S.D.): TBHQ 100 ppm, sausage about 10^6 CFU/g; for Percentage of Bags Testing Positive For Listeria in Batch of 3 (±S.D.): TBHQ 300 ppm, sausage about 10^6 per g
Protocol: In another embodiment, a food substrate processed according to methods of this invention has nondetectable levels of Listeria (even if contamination has occurred). […] The mixture is incubated at 37° C. for 48 hours, followed by the enrichment (mixture) being streaked on Oxford agar or […] agar, and observing the streaked plate for the presence/absence of Listeria. […] Tailing effects also may be reduced or eliminated by methods of the present invention. The presence or absence of other microorganisms may be detected using similar techniques modified for the specific microorganism under consideration. The edible hydroquinone was tert-butylhydroquinone (TBHQ) at a level of either 0 or 100 ppm. The tert-butylhydroquinone was a food grade material obtained from Sigma Chemical Co. (St. Louis, Mo.). The lantibiotic was nisin at a level of either 0 or 100 IU/g. The nisin used was either pure nisin or a commercial nisin ([…]®), both from Aplin & Barrett, Ltd. (Trowbridge, England). […] Nisin samples were prepared by dissolving nisin powder in distilled water, adjusting the pH to 2 with HCl, and sterilizing at 121° C. for 10 minutes. Samples were prepared and used on the same day for each experiment. Three strains of Listeria monocytogenes were used in these challenge studies. Listeria monocytogenes Scott A, OSY-8578, and OSY-328, were obtained from the Food Safety Laboratory of the Department of Food Science and Technology at The Ohio State University (Columbus, Ohio). All experiments were carried out with cultures in stationary phase (grown in tryptose broth (TB; Difco Laboratories, Detroit, Mich.) for 18 hours at 37° C.). […] The hydrostatic pressure used was 600 MPa. For comparison purposes, samples were also treated with no hydrostatic pressure (i.e., under atmospheric pressure). A hydrostatic food processor (Quintus QFP-6, ABB Autoclave Systems, Inc., Columbus, Ohio) was used with a pressure transmitting fluid containing a water/propylene glycol (1:1 vol/vol; Houghto-Safe 620-TY, Houghton International, Inc., Valley Forge, Pa.). Samples were held in a refrigerator before processing and placed on ice following treatment. The temperature during each run was monitored using a thermocouple and a datalogger (Campbell Scientific, Inc., Logan, Utah). […] Canned Vienna sausage (Armour®, The Dial Corporation, Scottsdale, Ariz.) was purchased from local grocery stores. […] One milliliter of each additive, alone or in combinations, was added, and the bags were sealed using vacuum […], Kansas City, Mo.). […] Non-pressurized samples were treated in a similar manner except that no pressure was applied. After high pressure processing, bags were opened aseptically. […] The presence or absence of L. monocytogenes survivors in the samples was determined by streaking the incubated mixture onto Oxford agar and/or […] agar. Each test run consisted of 5 tested bags at a given set of variables; the experiment was repeated 4 times. Treatment conditions required for essentially total elimination of L. monocytogenes were determined using essentially the same materials and procedures as used in Example 1 except that the nisin level was 0, 100, or 200 IU/g; the hydroquinone level was 0, 100, 200, or 300 ppm; and each experiment was repeated 3 times.

[5] = tested on: Listeria monocytogenes strains; test: Tailing behaviour during pressure treatment in phosphate buffer; settings: combination of high pressure (300, 500, 700 MPa) and TBHQ about 100 ppm
Protocol: as §1, §2

[6] = 300 MPa, 0 min (come-up, immediate depressurization)
[7] = 500 MPa, 0 min (come-up, immediate depressurization)
[8] = 700 MPa, 0 min (come-up, immediate depressurization)

CC(C)(C)c1cc(O)ccc1O [TBHQ, tert-butylhydroquinone]
Average Log Reduction [1, 6]: 0 log | Average Log Reduction ([1]; 300 MPa, 1 min): 0.2 log | Average Log Reduction ([1]; 300 MPa, 5 min): 0.2 log | Average Log Reduction ([1]; 300 MPa, 10 min): 0.8 log | Average Log Reduction ([1]; 300 MPa, 20 min): 3.8 log | Average Log Reduction ([1]; 300 MPa, 30 min): 5.0 log | Average Log Reduction ([1]; 300 MPa, 40 min): 5.7 log | Average Log Reduction ([1]; 300 MPa, 50 min): 7.2 log | Average Log Reduction [1, 7]: 0.2 log | Average Log Reduction ([1]; 500 MPa, 1 min): 7.2 log | Average Log Reduction ([1]; 500 MPa, 5 min): 7.6 log | Average Log Reduction ([1]; 500 MPa, 10 min): ≧8.0 log | Average Log Reduction ([1]; 500 MPa, 20 min): 7.9 log | Average Log Reduction ([1]; 500 MPa, 30 min): 7.8 log | Average Log Reduction ([1]; 500 MPa, 40 min): ≧8.0 log | Average Log Reduction [1, 8]: 7.6 log | Average Log Reduction ([1]; 700 MPa, 0.5 min): 7.7 log | Average Log Reduction ([1]; 700 MPa, 1 min): 7.8 log | Average Log Reduction ([1]; 700 MPa, 5 min): ≧8.0 log | Average Log Reduction ([1]; 700 MPa, 10 min): ≧8.0 log | Average Log Reduction ([1]; 700 MPa, 15 min): ≧8.0 log | Average Log Reduction ([1]; 700 MPa, 20 min): ≧8.0 log | Average Log Reduction [2, 6]: 0 log | Average Log Reduction ([2]; 300 MPa, 1 min): 0 log | Average Log Reduction ([2]; 300 MPa, 5 min): 0 log | Average Log Reduction ([2]; 300 MPa, 10 min): 0.2 log | Average Log Reduction ([2]; 300 MPa, 20 min): 1.0 log | Average Log Reduction ([2]; 300 MPa, 30 min): 1.6 log | Average Log Reduction ([2]; 300 MPa, 40 min): 2.3 log | Average Log Reduction ([2]; 300 MPa, 50 min): 2.4 log | Average Log Reduction ([2]; 300 MPa, 60 min): 3.1 log | Average Log Reduction [2, 7]: 0.2 log | Average Log Reduction ([2]; 500 MPa, 5 min): 7.6 log | Average Log Reduction ([2]; 500 MPa, 10 min): 7.8 log | Average Log Reduction ([2]; 500 MPa, 20 min): ≧7.9 log | Average Log Reduction ([2]; 500 MPa, 30 min): 7.8 log | Average Log Reduction ([2]; 500 MPa, 40 min): ≧7.9 log | Average Log Reduction ([2]; 500 MPa, 50 min): ≧7.9 log | Average Log Reduction [2, 8]: 5.3 log | Average Log Reduction ([2]; 700 MPa, 1 min): ≧8.0 log | Average Log Reduction ([2]; 700 MPa, 5 min): ≧8.0 log | Average Log Reduction ([2]; 700 MPa, 10 min): ≧7.9 log | Average Log Reduction ([2]; 700 MPa, 15 min): ≧7.9 log | Average Log Reduction ([2]; 700 MPa, 20 min): 7.8 log | Average Log Reduction ([2]; 700 MPa, 30 min): ≧8.0 log | Average Log Reduction [3, 6]: 0 log | Average Log Reduction ([3]; 300 MPa, 1 min): 0 log | Average Log Reduction ([3]; 300 MPa, 5 min): 2.2 log | Average Log Reduction ([3]; 300 MPa, 10 min): 6.5 log | Average Log Reduction ([3]; 300 MPa, 20 min): 7.3 log | Average Log Reduction ([3]; 300 MPa, 30 min): 7.3 log | Average Log Reduction ([3]; 300 MPa, 40 min): ≧8.0 log | Average Log Reduction [3, 7]: 3.8 log | Average Log Reduction ([3]; 500 MPa, 1 min): 7.9 log | Average Log Reduction ([3]; 500 MPa, 5 min): 8.0 log | Average Log Reduction ([3]; 500 MPa, 10 min): ≧8.0 log | Average Log Reduction ([3]; 500 MPa, 15 min): ≧8.0 log | Average Log Reduction ([3]; 500 MPa, 20 min): ≧8.0 log | Average Log Reduction ([3]; 500 MPa, 30 min): ≧8.0 log | Average Log Reduction [3, 8]: 7.7 log | Average Log Reduction ([3]; 700 MPa, 0.5 min): 7.5 log | Average Log Reduction ([3]; 700 MPa, 1 min): ≧8.0 log | Average Log Reduction ([3]; 700 MPa, 2 min): ≧8.0 log | Average Log Reduction ([3]; 700 MPa, 5 min): ≧8.0 log | Average Log Reduction ([3]; 700 MPa, 10 min): ≧8.0 log | Average Log Reduction ([3]; 700 MPa, 15 min): ≧8.0 log | Percentage of Bags Testing Positive For Listeria in Batch of 5 (±S.D.) ([4]; Run 3: 0 MPa): 100% | Percentage of Bags Testing Positive For Listeria in Batch of 5 (±S.D.) ([4]; Run 7: 600 MPa): 15 (±30) % | Percentage of Bags Testing Positive For Listeria in Batch of 3 (±S.D.) ([4]; Run 10: 0 MPa): 100% | Percentage of Bags Testing Positive For Listeria in Batch of 3 (±S.D.) ([4]; Run 15: 600 MPa): 0% | tailing phenomenon [5]: eliminated the tailing phenomenon
